Results as given in patent EP3771719A1, “A PEPTIDE BINDING TO TAU-PROTEIN” (Hochschule für angewandte Wissenschaften Fachhochschule …, priority 2019, dated 2021).
Non-standard residues stand in square brackets, D forms with d. No end group written: not given here.

Assays:
[1] = tested on: tau-protein; experiment: ThT aggregation assay of tau-protein with heparin; assay type: biochemical; settings: 24 µM tau, 6 µM heparin, 36 h
Method: A ThT-aggregation assay of tau was performed for quantifying the relative content of fibrils in the presence of peptides and heparin (6 µM). The concentration of tau-protein was 24 µM, the peptides were added at a ratio of 1:5 and 1:10 (tau-protein:peptide). The fluorescence measured of 24 µM tau-protein after incubation for 36h was arbitrarily set to be 100%, and the measured values and standard deviations of the other incubations are indicated as percentage proportions of this maximum value.
A ThT-aggregation assay of tau was performed for quantifying the relative content of fibrils in the presence of peptides and heparin (6 µM). Here, the D-enantiomers of the peptides and their retro-inverso-versions are used. "retro-inverso-version" as used herein, refers to a sequence wherein the amino acid sequence of one peptide, as read from its N-terminus to its C-terminus, has been reversed, such that the N-terminus and C-terminus of the peptide sequence have been inverted. The concentration of tau-protein was 24 µM, and the peptides MMD2 and MMD2rev were added at a ratio of 1:10. The peptides MMD3 and MMD3rev were added at a ratio of 1:5 and 1:10 (tau-protein:peptide). The fluorescence of tau-protein at 24 µM after an incubation of 36 h was arbitrarily set to be 100% and the measured values and standard deviations of the other incubations are indicated as percentage proportions of this maximum value.
To test the ability of the L-synthesized peptides to inhibit the aggregation of tau in vitro, thioflavin assays were performed. The peptides were added to the aggregation mix in a molar ratio of 1:5 and/or 1:10 (tau:peptide), respectively. As positive control, tau was incubated with heparin without addition of peptides, negative controls were tau alone with THT and buffer including THT. The relative fluorescence of the positive control was set to be 100% after 36 h of incubation and the relative fluorescence of the samples was normalized to the positive control.
To investigate the potential of the selected D-peptides MMD2, MMD2rev, MMD3 and MMD3rev to inhibit fibrillization of full-length tau, thioflavin fluorescence assays were performed. Tau aggregation was initiated by addition heparin to tau protein in a concentration of 24 µM, the mixtures were incubated in absence or presence of the respective peptide in a molar ratio of 1:10, in case of MMD2 as well as MMD2rev, and in molar ratio 1:10 and 1:5, in case of MMD3 and MMD3rev. After 36 hours of incubation, the fluorescence of the tau and heparin control sample reached a saturation level, and the value of fluorescence was set to 100%. […] MMD2 reduce the aggregation of tau to about 90% and MMD2rev reduce the aggregation to about 70%. […] The inventors observed also that ThT fluorescence decreased with increasing concentration of the MMD3 and MMD3rev signifying a robust dose-dependent inhibition of full-length tau aggregation.

[2] = tested on: PHF6*; experiment: Thioflavin T test of PHF6* aggregation; assay type: biochemical; settings: 1000 µM peptide, 100 µM PHF6*, 10 µM thioflavin T, RT, ThT fluorescence monitored over 30 h
Method: PHF6*-fibrils are fibrils comprising the D-enantiomeric version of tau-peptide VQIINK (SEQ ID NO: 5). Peptides MMD3 and MMD3rev were diluted in sodium phosphate buffer to 1000 µM, and 100 µM PHF6*-solution and 10 µM thioflavin T were added. 100 µM PHF6* and 10 µM thioflavin in Napi-buffer was used as positive control. The negative control was 10 µM thioflavin T in Napi-buffer only. The samples were pipetted into a black 96-well µclear flat-bottom plate and incubated for 30 h,the relative fluorescence (excitation = 440 nm and emission = 480 nm) was determined. Triplicate measurements were performed for each sample.
To test whether MMD3 and MMD3rev reduce PHF6* fibril formation, 1000 µM from the respective peptides were incubated with 100 µM PHF6* at RT, as positive control PHF6* was incubated alone. The relative fluorescence of THT was monitored over 30 h.

[3] = tested on: tau monomers; experiment: ELISA binding of FAM-labeled peptides to tau monomers; settings: plate coated with 20 µg/ml tau monomers, FAM-labeled peptide in increasing concentrations, absorbance at 450 nm
Method: (§1) Peptides were used that had been labeled with a FAM (=5/6-carboxyfluorescein) at the C-terminus. The peptides used were MM2 (= LTPHKHHKHLHA as L-enantiomer = SEQ ID NO: 6) and MM3 (SEQ ID NO: 1), to which a Lys (FAM)-NH2-residue had been attached at the C-terminus, respectively. The wells of a 96-well plate were coated with 20 µg/ml monomeric tau-protein or tau-fibrils and were incubated for 1h. After washing three times with PBS-T (phosphate-buffered saline with 0.1 % tween), the free binding sites were blocked for over a period of 1 hour. The respective peptides MM2-Lys(FAM)-NH2 and MM3-Lys(FAM)-NH2 were added (1 µg/ml, 5 µg/ml, 10 µg/ml, 20 µg/ml) and incubated for 1h. A specific anti-FITC-HRP antibody (anti-fluorescein-isothiocyanate-horseradish-peroxidase) was added in 1:1000 dilution and was incubated for 1h. Thereafter, TMB-substrate was added and incubated for 20 min. After […] of enzyme reaction by addition of 20% sulfuric acid, the absorption at 450 nm was determined. Measurements were performed in triplicate and the average values of the measured absorption of these triplicate samples as well as their standard deviations are shown in figure 1.
(§2) The binding affinity of MMD2 and MMD3 was tested using ELISA. […] The detection was done with anti-FAM HRP antibodies and absorbance was measured at 450 nm. […]

[4] = tested on: tau fibrils; experiment: ELISA binding of FAM-labeled peptides to tau fibrils; settings: plate coated with 20 µg/ml tau fibrils, FAM-labeled peptide in increasing concentrations, absorbance at 450 nm
Method: as §1, §2

[5] = tested on: PHF6* fibrils; experiment: ELISA binding of FAM-labeled peptide to PHF6* fibrils; settings: plate coated with 50 µg/ml PHF6* fibrils, FAM-labeled peptide 10, 20, 50 µg/ml, absorption at 450 nm
Method: As used herein, "PHF6*-fibrils" are fibrils comprising the D-enantiomeric version of tau-peptide VQIINK (SEQ ID NO: 5). The wells of a 96-well plate were coated with 50 µg/ml PHF6*-fibrils and were incubated for 1h. After washing of wells three times with PBS-T (phosphate buffer saline with 0.1 % tween), the free binding sites were blocked for 1 hour. Peptide MMD3-Lys(FAM)-NH2 was added (10 µg/ml, 20 µg/ml and 50 µg/ml) and incubated for 1 h. A specific anti-FITC-HRP-antibody was added at a dilution of 1:1000 and incubated for 1h. Thereafter, TMB-substrate solution was added and incubated for 20 min. After termination of the enzyme reaction by additional 20 % sulfuric acid, absorption at 450 nm was measured. The absorption of the negative control (buffer only) was substracted. Triplicate measurements were performed, at the average values of the measured absorptions of the different samples are shown as well as their respective standard deviations.
To evaluate the binding properties of MMD3 to PHF6* fibrils, ELISA was performed with FAM-labeled version of the peptide. […] The peptide was added in an increasing concentration, the bound peptide was detected with anti-FAM antibodies. After adding the substrate, the absorption at 450 nm, which represents the binding affinities, was measured.

For LTPHKHHKHLHA [MM2, reference compound], the “aggregation of tau (relative ThT fluorescence, positive control tau + heparin = 100%)” value ([1]; molar ratio 1:5 (tau:peptide)) was “about 50%” and the “aggregation of tau (relative ThT fluorescence, positive control tau + heparin = 100%)” value ([1]; molar ratio 1:10 (tau:peptide)) was “nearly complete inhibition”.
For DPLKARHTSVWY [MM3], the “aggregation of tau (relative ThT fluorescence, positive control tau + heparin = 100%)” value ([1]; molar ratio 1:5 (tau:peptide)) was “significantly inhibiting tau fibrils formation” and the “aggregation of tau (relative ThT fluorescence, positive control tau + heparin = 100%)” value ([1]; molar ratio 1:10 (tau:peptide)) was “significantly inhibiting tau fibrils formation”.
“ahlhkhhkhptl (AHLHKHHKHPTL; all D-amino acids) [MMD2rev, reference compound]” was tested, and the “aggregation of tau (relative ThT fluorescence, positive control tau + heparin = 100%)” value ([1]; molar ratio 1:10 (tau:peptide)) was “about 70%”.
For “ywvsthraklpd ([dY][dW][dV][dS][dT][dH][dR][dA][dK][dL][dP][dD]) [MMD3rev]”, the “aggregation of tau (relative ThT fluorescence, positive control tau + heparin = 100%)” value ([1]; molar ratio 1:5 (tau:peptide)) was “inhibited formation of tau aggregates significantly”, the “aggregation of tau (relative ThT fluorescence, positive control tau + heparin = 100%)” value ([1]; molar ratio 1:10 (tau:peptide)) was “inhibited formation of tau aggregates significantly” and the “inhibition of PHF6* fibril formation” value [2] was “did indeed inhibit the formation of PHF6* fibrils”.
With ltphkhhkhlha [MMD2, reference compound] the “binding to tau monomers” value [3] was “binding could be demonstrated”, the “aggregation of tau (relative ThT fluorescence, positive control tau + heparin = 100%)” value ([1]; molar ratio 1:10 (tau:peptide)) was “about 90%” and the “binding to tau fibrils” value [4] was “binding could be demonstrated”.
In the case of “dplkarhtsvwy ([dD][dP][dL][dK][dA][dR][dH][dT][dS][dV][dW][dY]) [MMD3]”, the “binding to tau monomers” value [3] is reported as “binding could be demonstrated”, the “aggregation of tau (relative ThT fluorescence, positive control tau + heparin = 100%)” value ([1]; molar ratio 1:5 (tau:peptide)) is reported as “inhibited formation of tau aggregates significantly” and the “aggregation of tau (relative ThT fluorescence, positive control tau + heparin = 100%)” value ([1]; molar ratio 1:10 (tau:peptide)) is reported as “inhibited formation of tau aggregates significantly”. For the same substance, the “binding to tau fibrils” value [4] was “binding could be demonstrated”, the “inhibition of PHF6* fibril formation” value [2] was “did indeed inhibit the formation of PHF6* fibrils” and the “binding to PHF6* fibrils” value [5] was “bound to PHF6* fibrils in concentration-dependent manner”.
